Where two headings read alike, the source gives them in different places.
How the values were obtained:
[1] = biological target: SARS-CoV-2 nsp14 (Severe acute respiratory syndrome coronavirus 2, UniProt P0DTD1); assay: biochemical; settings: for Ligand Efficiency (LE) nsp14: estimated from IC50 values
[2] = biological target: SARS-CoV-2 nsp16/nsp10 (Severe acute respiratory syndrome coronavirus 2, UniProt P0DTD1); assay: biochemical; settings: for Ligand Efficiency (LE) nsp16: estimated from IC50 values
[3] = biological target: T1, human Glycine N-Methyltransferase (GNMT) (Homo sapiens, UniProt Q14749); assay: HTRF methyltransferase selectivity assay, human GNMT; format: biochemical; settings: for Ligand Efficiency (LE) Human (hMtase): estimated from IC50 values
T1 construct: purchased MyBioSource MBS636160
T1 sequence (Q14749 1-295): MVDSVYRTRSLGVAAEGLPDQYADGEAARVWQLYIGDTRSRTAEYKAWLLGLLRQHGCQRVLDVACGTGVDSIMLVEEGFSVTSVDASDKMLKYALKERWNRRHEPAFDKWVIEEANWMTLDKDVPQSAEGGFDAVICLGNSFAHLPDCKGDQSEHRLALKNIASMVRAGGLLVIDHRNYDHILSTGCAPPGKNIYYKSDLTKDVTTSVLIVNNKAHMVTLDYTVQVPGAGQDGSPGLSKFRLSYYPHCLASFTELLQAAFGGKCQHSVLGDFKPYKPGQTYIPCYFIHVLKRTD

[4] = HTRF, SAM 10 µM, GpppG 4 µM, read-out: IC50 nsp14
[5] = HTRF, nsp16/nsp10, SAM 10 µM, m7GpppA-RNA, read-out: IC50 nsp16
[6] = HTRF, SAM 10 µM, glycine 5 mM, read-out: IC50 Human (hMtase, human glycine N-methyltransferase)

| Compound | Percent inhibition at 100 μM, nsp14 [1] [%] | Percent inhibition at 100 μM, nsp16 [2] [%] | Percent inhibition at 100 μM, Human [3] [%] | other results |
| --- | --- | --- | --- | --- |
| CC(C)(C)c1csc(SCC(=O)Nc2cccc3nsnc23)n1 [Compound 009-639-090] | 16 ±1 | 43 ±7 | 61 ±9 |  |
| O=C(CSc1nc(CC(=O)Nc2cccc3nsnc23)cs1)Nc1ccc(F)cc1 [Compound 009-741-602] | 25 ±2 | 45 ±5 | 24 ±7 |  |
| CN(CCNc1nc2c(c(=O)[nH]1)Cc1ccccc1OC2)S(C)(=O)=O [Compound 028-736-920] | 8 ±5 | -4 ±3 | 42 ±2 |  |
| Nc1ncnc2c1ncn2[C@@H]1O[C@H](CSCC[C@H](N)C(=O)O)[C@@H](O)[C@H]1O [S-(5′-Adenosyl)-L-homocysteine (SAH), S-(5′-Adenosyl)-L-homocysteine, reference compound] |  |  |  | IC50 [1]: 0.14 µM; Ligand Efficiency (LE) nsp14 [1]: 0.33 kcal/mol; IC50 [2]: 0.28 µM; Ligand Efficiency (LE) nsp16 [2]: 0.32 kcal/mol; IC50 [3]: 1.7 µM; Ligand Efficiency (LE) Human (hMtase) [3]: 0.28 kcal/mol |
| Nc1ncnc2c1ncn2[C@@H]1O[C@H](C(=O)NC2CC2)[C@@H](O)[C@H]1O [ZINC000004475116] | 32 ±6 | 54 ±10 | 56 ±1 |  |
| NC1=NC(c2ccccc2)n2c(nc(=O)c3ccccc32)N1 (centres unmarked) [ZINC000008994271] | 19 ±10 | 39 ±3 | -3 ±6 |  |
| Cc1ncsc1CCC(=O)N1CCCC(C(=O)c2ccc3c4c(cccc24)CC3)C1 (centres unmarked) [ZINC000012755219] | 9 ±5 | 40 ±8 | 61 ±4 |  |
| CC(=O)N1N=C(c2ccc3c(c2)OCO3)CC1c1cn(-c2ccccc2)nc1C (centres unmarked) [ZINC000012821397] | 27 ±5 | 15 ±5 | -5 ±2 |  |
| Nc1ncnc2c1ncn2[C@@H]1O[C@H](C(=O)N2CCN(CC(=O)Nc3cccc4c3CNC4=O)CC2)[C@@H](O)[C@H]1O [ZINC000017654909] | 62 ±2 | 65 ±7 | 98 ±2 | IC50 [1, 4]: 75 ± 4 µM; Ligand Efficiency (LE) nsp14 [1]: 0.14 kcal/mol; IC50 [2, 5]: 75 ± 4 µM; Ligand Efficiency (LE) nsp16 [2]: 0.14 kcal/mol; IC50 [3, 6]: 22.8 µM; Ligand Efficiency (LE) Human (hMtase) [3]: 0.16 kcal/mol |
| Cc1nc2ccc(Cl)cc2cc1C(=O)Nc1ccc(C(N)=O)cc1 [ZINC000019718669] | 49 ±16 | 66 ±9 | 52 ±4 |  |
| CC(=O)N1N=C(c2ccc3c(c2)OCO3)OC1c1cc(-c2ccccc2)nc2ccccc12 (centres unmarked) [ZINC000021941344] | 12 ±4 | 36 ±10 | 45 ±7 |  |
| COc1cc(NC(=O)C2CCN(Cc3nc(-c4cccc(C)c4)no3)CC2)c(OC)cc1Cl [ZINC000030974583] | 19 ±1 | 45 ±11 | 48 ±8 |  |
| NC(=O)CC[C@H](N)C(=O)NS(=O)(=O)OC[C@H]1O[C@@H](n2cnc3c(N)ncnc32)[C@H](O)[C@@H]1O [ZINC000036477981] | 20 ±3 | 50 ±11 | 89 ±8 |  |
| Nc1ncnc2c1ncn2[C@@H]1O[C@H](COC(=O)c2ccc(S(=O)(=O)F)cc2)[C@@H](O)[C@H]1O [ZINC000048222133] | 58 ±2 | 42 ±6 | 87 ±1 | IC50 [1, 4]: 53 ± 3 µM; Ligand Efficiency (LE) nsp14 [1]: 0.19 kcal/mol; IC50 [2, 5]: 105 ± 6 µM; Ligand Efficiency (LE) nsp16 [2]: 0.17 kcal/mol; IC50 [3, 6]: 25.3 µM; Ligand Efficiency (LE) Human (hMtase) [3]: 0.20 kcal/mol |
| Cc1ccccc1NC(=O)c1nnn2c1NC(C(=O)O)=CC2c1ccc(C(=O)O)cc1 (centres unmarked) [ZINC000072333096] | 25 ±10 | 33 ±12 | 17 ±4 |  |
| Cc1cc(=O)[nH]c(NCCNC(=O)c2cc(-c3cccn3C)n[nH]2)n1 [ZINC000091693861] | 9 ±6 | 24 ±4 | 21 ±6 |  |
| COc1ccccc1CN1CC(C(=O)NCc2n[nH]c(=O)[nH]2)CCC1=O (centres unmarked) [ZINC000092001674] | 0 ±7 | 22 ±12 | 44 ±8 |  |

| Compound | Percent inhibition at 100 μM, nsp14 [1] [%] | Percent inhibition at 100 μM, nsp16 [2] [%] | Percent inhibition at 100 μM, Human [3] [%] | other results |
| --- | --- | --- | --- | --- |
| Cc1nc(O)cc(CNc2nc3c(c(=O)[nH]2)Cc2ccccc2OC3)n1 [ZINC000095519272] | 49 ±17 | 57 ±13 | 70 ±3 | IC50 [1, 4]: ~200 µM; Ligand Efficiency (LE) nsp14 [1]: 0.19 kcal/mol; IC50 [2, 5]: 95 ± 4 µM; Ligand Efficiency (LE) nsp16 [2]: 0.21 kcal/mol; IC50 [3, 6]: 53 ± 3 µM; Ligand Efficiency (LE) Human (hMtase) [3]: 0.22 kcal/mol |
| O=C(CCCn1cnc2ccccc2c1=O)Nc1ccc2ncnc(O)c2c1 [ZINC000096114839] | 28 ±7 | 17 ±5 | 83 ±6 |  |
| CCN(CCSc1ccccc1)C(=O)c1cc(-c2ccncc2)n[nH]1 [ZINC000097636636] | 5 ±2 | 19 ±7 | -46 ±2 |  |
| CC(C(=O)NCCCn1ccnn1)c1n[nH]c(=O)c2ccccc12 (centres unmarked) [ZINC000215108606] | 9 ±3 | 40 ±6 | 22 ±6 |  |
| O=C(Cn1ccc(=O)c2ccccc21)NCCSc1cnn[nH]1 [ZINC000218615582] | 21 ±3 | 51 ±4 | 55 ±2 |  |
| CN(Cc1cccc2cnccc12)C(=O)CCC1(CCC(=O)O)CCC(=O)N1 (centres unmarked) [ZINC000220483024] | -5 ±3 | 31 ±6 | 16 ±4 |  |
| CCc1n[nH]c2c1CN(C(=O)c1cccc(-c3cc(O)nc(N)n3)c1)CC2 [ZINC000426470786] | 1 ±6 | 8 ±5 |  |  |
| CN1CC(=O)N(c2cccc(NC(=O)NC[C@H](O)CO)c2)C1=O [ZINC000426716892] | -1 ±2 | 30 ±2 |  |  |
| Cc1cc(-c2ccc(C(=O)NCC(N)=O)cc2)nc(N2CCOCC2)n1 [ZINC000534574506] | 3 ±3 | 17 ±8 |  |  |
| O=C(CN1C(=O)c2ccccc2N2C(=O)c3ccccc3C12)N1CCc2c([nH]c3ccccc23)C1 (centres unmarked) [ZINC000604419204] | 5 ±11 | -3 ±5 |  |  |
| Cc1[nH]c(-c2ccccc2)nc1C(=O)NCc1ccc2[nH]c(=O)[nH]c2c1 [ZINC000680227150] | 19 ±7 | 23 ±5 |  |  |
| O=C(c1ccc2c3c([nH]c2c1)CCCC3)N1CCC[C@H]1c1nc(-c2ccncc2)no1 [ZINC000952966781] | 11 ±10 | 24 ±5 |  |  |
| CN(CC1CCN(c2ccccc2)C1)S(=O)(=O)c1ccc2[nH]c(=O)oc2c1 (centres unmarked) [ZINC000952973746] | 27 ±9 | 38 ±6 | 41 ±1 |  |
| O=C(CCc1n[nH]c2c1CCCC2)NCc1cc(O)ncn1 [ZINC000952975967] | 2 ±7 | -24 ±4 |  |  |
| O=C(CCc1nc2cc(Cl)ccc2[nH]1)N1CC[C@H](n2c(=O)[nH]c3cccnc32)C1 [ZINC1548405210] | 6 ±2 | 15 ±2 |  |  |
| CC(=O)c1cnc(NC(C)c2nnc(CC(=O)O)[nH]2)nc1C (centres unmarked) [ZINC1772709012] | 16 ±13 | 32 ±8 |  |  |
| O=C(C1CCc2sc(-c3ccncc3)nc2C1)N1CCc2c(nc[nH]c2=O)C1 (centres unmarked) [ZINC1772809556] | 15 ±9 | 5 ±8 |  |  |
